Earlier results in patent US20040028613A1, “Dopamine agonist formulations for enhanced central nervous system delivery” (Nastech Pharmaceutical Company Inc, priority 2001, published 2004).
Each block holds one compound with its values, some of them ahead of it.

Experiments:
[1] = intraduodenal, rats, with 1% (w/v) saline dispersion of polycarbophil
[2] = test system: ciliary movement of human adenoid tissue; conditions: for time in which ciliary movement was inhibited / inhibitory effect on ciliary movement at the end of 60 mm: 0.3%
[3] = test system: ciliary function in epithelial cell cultures
[4] = subcutaneous injection
[5] = 2.5 mg to 3.5 mg, hypotension, nausea, vomiting, impaired vision, diaphoresis, ashen coloring
[6] = aqueous solution, physiologic pH

Compound: 9-desglycinamide, 8-arginine vasopressin
increase of bioavailability compared to aqueous solution without polymer [1]: 3-5 fold

Compound: CC(=O)OC1CC2(C)C(CC(O)C3C4(C)CCC(O)C(C)C4CCC32C)C1=C(CCCC(C)C)C(=O)NCCS(=O)(=O)O (stereo not drawn) [STDHF, sodium taurodihydrofusidate]
inhibition of ciliary movement ([2]; concentration of 0.3%, at 60 minutes): total

Compound: 2-alkyl-4-hydroxyquinolines [pyo compound]
concentration producing ciliostasis / inhibiting ciliary motility [3]: 50 µg/mL

Compound: CC(C)CC(N)B(O)O (stereo not drawn) [boro-leucine]
effectiveness in enzyme inhibition relative to bestatin (aminopeptidases): more than 100 times | effectiveness in enzyme inhibition relative to puromycin (aminopeptidases): more than 1000 times

CSF levels of active drug as percentage of levels found in the plasma [4]: less than 5%
Compound: CN1CCc2cccc3c2[C@H]1Cc1ccc(O)c(O)c1-3 [apomorphine]
side effects of intranasal delivery [5]: extensive and serious side effects

Compound: NCCN(CCN)/[N+]([O-])=N/O [diethylenetriamine/NO (DETANO)]
rate (time) of NO release [6]: approximately 20 hours

Compound: Laureth-9
time in which ciliary movement was inhibited [2]: 10 mm

Compound: CCN(CC)/[N+]([O-])=N/O.CCNCC [diethylamine/NO]
rate (time) of NO release [6]: < 3 min

Compound: C[C@H](CCC(=O)O)[C@H]1CC[C@H]2[C@@H]3CC[C@@H]4C[C@H](O)CC[C@]4(C)[C@H]3C[C@H](O)[C@]12C [deoxycholate, deoxycholic acid]
time in which ciliary movement was inhibited [2]: 20 mm

Compound: C[C@H](CCC(=O)NCC(=O)O)[C@H]1CC[C@H]2[C@@H]3[C@H](O)C[C@@H]4C[C@H](O)CC[C@]4(C)[C@H]3C[C@H](O)[C@]12C [glycocholate, glycocholic acid]
inhibitory effect on ciliary movement at the end of 60 mm [2]: no inhibitory effect

Compound: C[C@H](CCC(=O)NCCS(=O)(=O)O)[C@H]1CC[C@H]2[C@@H]3[C@H](O)C[C@@H]4C[C@H](O)CC[C@]4(C)[C@H]3C[C@H](O)[C@]12C [taurocholate, taurocholic acid]
inhibitory effect on ciliary movement at the end of 60 mm [2]: no inhibitory effect

CSF level at 20 min ([4]; prior art, patients): 1.08 ng/mL | Plasma level at 20 min ([4]; prior art, patients): 25.04 ng/mL
Compound: CN1CCc2cccc3c2[C@H]1Cc1ccc(O)c(O)c1-3 [SC Inj (ref. 1), apomorphine]
